Measurements: patent publication US12691070B2, “Cationic lipids and preparation method thereof” (RiboX Therapeutics HK Limited, priority 2023, dated 2026)

Experiments:
[1] = LNP size and polydispersity index (PDI) by dynamic light scattering; type: physicochemical; settings: LNP with cirRNA (SEQ ID NO: 1); for Size: in nm (unit assumed)
Experimental: (§1) Ionizable lipid, DSPC, Cholesterol and DMG-PEG 2000 were mixed at a molar ratio of 50:10:38.5:1.5 in absolute ethanol. Circular RNA and linear mRNA payloads were suspended in 25 mM Acetate Buffer (pH 4.5). To form LNPs, three volumes of luciferase encoding RNA, in the form of cirRNA (SEQ ID NO:1) and mRNA (SEQ ID NO:2) respectively, were mixed with one volume of lipids in ethanol solution by microfluidic mixing with the Nanoassemblr Ignite (Precision Nanosystems) at a flow rate of 12 ml/min. The molar ratio of ionizable lipid to ribonucleotide was 15 or 6. The final lipid concentration in solution ranged from 1.5 mM to 6 mM. After encapsulation, the particles were dialyzed twice against PBS.
(§2) The LNP size and polydispersity index (PDI), determined by dynamic light scattering (DLS), and zeta potential were measured by a Zetasizer machine (Malvern). RNA concentration and encapsulation efficacy were analyzed by the Quant-IT Ribogreen kit by calculating the percentage encapsulation at 100%−(RNA-LNPs/RNA-LNPs with Triton X-100).

[2] = LNP zeta potential (Zetasizer); type: physicochemical; settings: LNP with cirRNA (SEQ ID NO: 1)
Experimental: as §1, §2

[3] = RNA encapsulation efficacy by Quant-IT Ribogreen kit; type: physicochemical; settings: LNP with cirRNA (SEQ ID NO: 1)
Experimental: as §1, §2

Hep G2 cells [4] = experiment: In vitro expression of firefly-luciferase, Hep G2; type: cell-based; settings: cirRNA (SEQ ID NO: 1) LNPs; firefly-luciferase luminescence; Hep G2 cells
Experimental: (§3) RAW 264.7 and Hep G2 cells were transfected with 100 ng/mL of RNA-LNPs encoding for firefly-luciferase. At 72 hours post transfection, the cells were washed and lysed. The luciferase expression was determined in the cell lysates with the luciferase assay reagent kit (Promega), according to the kit protocol, luciferase activity was measured by a luminometer.

RAW 264.7 cells [5] = experiment: In vitro expression of firefly-luciferase, RAW 264.7; type: cell-based; settings: cirRNA (SEQ ID NO: 1) LNPs; firefly-luciferase luminescence; RAW 264.7 cells
Experimental: as §3

Hep G2 cells [6] = experiment: In vitro toxicity (CellTiter-Glo cell viability), Hep G2; type: cell-based; settings: cirRNA (SEQ ID NO: 1) LNPs; Hep G2 cells;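 note: percent of untreated cells luminescence signal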
Experimental: (§4) RAW 264.7 and Hep G2 cells were transfected with 1 μg/mL RNA-LNPs. At 72 hours post transfection, cell viability was determined with the CellTiter-Glo® reagent kit, according to the kit protocol, measured by a luminometer.
(§5) The cell viability was calculated according to the following formula: […]

RAW 264.7 cells [7] = experiment: In vitro toxicity (CellTiter-Glo cell viability), RAW 264.7; type: cell-based; settings: cirRNA (SEQ ID NO: 1) LNPs; RAW 264.7 cells;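 note: percent of untreated cells luminescence signal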
Experimental: as §4, §5

BALB/C mice = experiment: In vivo expression, whole-body luminescence (IVIS); settings: cirRNA (SEQ ID NO: 1) LNPs, BALB/C mice
Experimental: 6-8 week old, female BALB/C mice were injected with 0.05 mg*kg-1 of RNA-LNPs encoding for firefly-luciferase by intravenous injection. At 6 hours post injection, animals were intraperitoneally injected with 15 mg/ml of Luciferin substrate and whole-body luminescence was determined by a bioluminescent in vivo imaging system (IVIS).

Compound	PDI [1]	Size [1]	Zeta (mV) [2]	Encapsulation Efficiency % [3]	In vitro Expression HepG2 (Hep G2 cells [4])	In vitro Expression RAW (RAW 264.7 cells [5])	In vitro Viability HepG2 (Hep G2 cells [6])	In vitro Viability RAW (RAW 264.7 cells [7])	In vivo Expression (Whole Body) (BALB/C mice)
CCCCCCCOC(=O)CCCCCCCCCN(CCCCCCCCCC(=O)OCCCCCCC)CCOC(=O)NCCCN(CC)CC [Lipid 122, heptyl 3-ethyl-12-(10-(heptyloxy)-10-oxodecyl)-8-oxo-9-oxa-3,7,12-triazadocosan-22-oate]	0.187	134.6	10.84 mV	96%	2.48E+03	2.24E+04	17%	8%	1.43E+05
CCCCC/C=C\C/C=C\CCCCCCCCN(CCCCCCCC(=O)OC(CCCCCCCC)CCCCCCCC)CCOC(=O)NCCCN(C)C [Lipid 130, heptadecan-9-yl 2-methyl-11-((9Z,12Z)-octadeca-9,12-dien-1-yl)-7-oxo-8-oxa-2,6,11-triazanonadecan-19-oate]	0.1685	145.8	11.37 mV	99%	5.31E+06	6.92E+05	91%	90%	1.08E+07
CCCCC/C=C\C/C=C\CCCCCCCCN(CCCCCCCC(=O)OC(CCCCCCCC)CCCCCCCC)CCOC(=O)NCCCn1ccnc1 [Lipid 133, heptadecan-9-yl 8-((2-(((3-(1H-imidazol-1-yl)propyl)carbamoyl)oxy)ethyl)((9Z,12Z)-octadeca-9,12-dien-1-yl)amino)octanoate]	0.0973	92.91	2.957 mV	95%	4.26E+04	8.30E+04	13%	27%	2.04E+08
CCCCC/C=C\C/C=C\CCCCCCCCN(CCCCCCCC(=O)OC(CCCCCCCC)CCCCCCCC)CCOC(=O)NCCN1CCOCC1 [Lipid 134, heptadecan-9-yl 8-((2-(((2-morpholinoethyl)carbamoyl)oxy)ethyl)((9Z,12Z)-octadeca-9,12-dien-1-yl)amino)octanoate]	0.043	89.71	−8.698 mV	90%	3.17E+04	5.25E+04	13%	84%	8.93E+05
CCCCC/C=C\C/C=C\CCCCCCCCN(CCCCCCCC(=O)OC(CCCCCCCC)CCCCCCCC)CCOC(=O)NCCN1CCN(C)CC1 [Lipid 135, heptadecan-9-yl 8-((2-(((2-(4-methylpiperazin-1-yl)ethyl)carbamoyl)oxy)ethyl)((9Z,12Z)-octadeca-9,12-dien-1-yl)amino)octanoate]	0.1211	150.9	8.469 mV	100%	2.30E+06	9.80E+04	91%	103%	3.51E+07
CCCCCCOC(=O)CCCCCCCCCCN(CCCCCCCCCCC(=O)OCCCCCC)CCOC(=O)NCCN(C)C [Lipid 136, hexyl 10-(11-(hexyloxy)-11-oxoundecyl)-2-methyl-6-oxo-7-oxa-2,5,10-triazahenicosan-21-oate]	0.146	143.7	16.11 mV	95%	2.15E+03	1.93E+02	20%	8%	6.14E+03
CCCCCCOC(=O)CCCCCCCCCCN(CCCCCCCCCCC(=O)OCCCCCC)CCOC(=O)NCCCN(CC)CC [Lipid 137, hexyl 3-ethyl-12-(11-(hexyloxy)-11-oxoundecyl)-8-oxo-9-oxa-3,7,12-triazatricosan-23-oate]	0.1423	224.1	19.29 mV	92%	1.57E+03	1.21E+02	12%	9%	1.84E+05
CCCCCCOC(=O)CCCCCCCCCCN(CCCCCCCCCCC(=O)OCCCCCC)CCOC(=O)NCCN1CCN(C)CC1 [Lipid 138, dihexyl 11,11′-((2-(((2-(4-methylpiperazin-1-yl)ethyl)carbamoyl)oxy)ethyl)azanediyl)diundecanoate]	0.1821	130.8	15.82 mV	96%	6.75E+01	9.75E+01	12%	10%	1.30E+05
CCCCCCCCC(CCCCCCCC)OC(=O)CCCCCCCN(CCCCCCCCOC(=O)C(CCCCCC)CCCCCCCC)CCOC(=O)NCCCN(C)C (stereo not drawn) [Lipid 146, heptadecan-9-yl 11-(8-((2-hexyldecanoyl)oxy)octyl)-2-methyl-7-oxo-8-oxa-2,6,11-triazanonadecan-19-oate]	0.2699	59.34	20.28 mV	87%	9.18E+05	8.92E+04	41%	99%	4.74E+06
CCCCCCCCC(CCCCCCCC)OC(=O)CCCCCCCN(CCCCCCCCOC(=O)C(CCCCCC)CCCCCCCC)CCOC(=O)NCCCn1ccnc1 (stereo not drawn) [Lipid 147, 8-((2-(((3-(1H-imidazol-1-yl)propyl)carbamoyl)oxy)ethyl)(8-(heptadecan-9-yloxy)-8-oxooctyl)amino)octyl 2-hexyldecanoate]	0.07303	53.54	4.888 mV	86%	1.60E+04	7.92E+03	87%	65%	5.02E+07
CCCCCCCCC(CCCCCCCC)OC(=O)CCCCCCCN(CCCCCCCCOC(=O)C(CCCCCC)CCCCCCCC)CCOC(=O)NCCN1CCCCC1 (stereo not drawn) [Lipid 149, 8-((8-(heptadecan-9-yloxy)-8-oxooctyl)(2-(((2-(piperidin-1-yl)ethyl)carbamoyl)oxy)ethyl)amino)octyl 2-hexyldecanoate]	0.02962	71.14	9.196 mV	88%	2.08E+05	1.91E+04	123%	100%	6.07E+07
